# Measurements taken from US20060148732A1, “Inhibition of NF-kappaB by triterpene compositions” (priority 2000, published 2006).
# Assays:
# SKH-1 hairless mice = experiment: UVB-induced skin lesions; format: in vivo, mouse; settings: UVB-irradiated SKH-1 mice; topical, 15 min before UVB
# Protocol: In the study, SKH-1 hairless mice are irradiated with UVB radiation at the dose of 1.8 kJ/m^2 for up to 15 min. Mice are pretreated with two different doses of F035 of (2 mg and 4 mg per dose) as well as negative controls (F060 or acetone alone). It is believed a minimum of 10 mice per group are needed to obtain statistically meaningful results. […] The studies are conducted for a short period of time to evaluate the preventive effect of the compounds. It is not expected to see visible tumors, even with UVB alone, only skin lesions within the specified time-frame. A slight erythema (minor redness of the skin) may be observed, which should disappear the next day after irradiation.
# The UV apparatus used has eight Westinghouse FS40 sunlamps, an IL-1400A radiometer/photometer, and an attached IL-1403 UVB phototherapy radiometer with a SEL 240/UVB-1/TD detector. The middle part has several chambers, each holding an individual mouse. There are holes inside the chambers for proper ventilation while mice are being irradiated. The chambers rotate in circular motion during irradiation so each mouse is exposed to UVB light uniformly. […] The amount of the UVB exposure will be measured with a UVB radiometer. […]
# Methods. […] The relative efficacy of the treatment was evaluated utilizing endpoints of epidermal thickness, leukocyte invasion, labeling (with BrdU) index, p53 mutations and 8-OH-dG formation. […]
# PARP in Jurkat cells = experiment: Immunoblot analysis of PARP degradation; format: cell-based, human
# Protocol: Apoptosis induced by F035 & D1 was examined by proteolytic cleavage of poly (ADP-ribose) polymerase (PARP). Jurkat cells (2×10^6/ml) were treated with F035 (2 μg/ml) and D1 (2 μg/ml) for different lengths of time. Cell lysates were prepared in buffer containing 20 mM HEPES, 250 mM NaCl, 2 mM EDTA, 0.1% NP-40, 2 μg/ml leupeptin, 2 μg/ml aprotinin, 0.5 μg/ml benzamidine, 1 mM DTT and 1 mM PMSF. Cellular proteins (60 μg/ml) were separated on a 7.5% SDS polyacrylamide gel and electrotransferred onto a nitrocellulose membrane. The membrane was probed first with monclonal anti-PARP antibody (PharMingen) and then with anti-mouse antibody conjugated to horse radish peroxidase (HRPO). Protein bands were detected by chemiluminescense (ECL, Amersham). The extent of cleavage of the 116-kDa PARP into 85-kDa and 41-kDa peptide products was used as a measure of apoptosis (Tewari et al., 1995).
# Immunoblot Analysis of PARP Degradation. Induction of apoptosis was also examined by proteolytic cleavage of PARP (Nicholson and Thornberry, 1997). Jurkat cells (3×10^6) were treated with 2 μg/ml of F094, avicin D, or avicin G at 37° C. Cell lysates were prepared in a buffer containing 20 mM HEPES, 250 mM NaCl, 2 mM EDTA, 0.1% NP-40, 2 μg/ml leupeptin, 2 μg/ml aprotinin, 0.5 μg/ml benzamidine, 1 mM DTT, and 1 mM PMSF. Cellular proteins (60 μg/ml) were separated on a 7.5% SDS polyacrylamide gel and electrotransferred onto a nitrocellulose membrane. The membrane was probed first with monoclonal anti-PARP antibody (Pharmingen) and then with anti-mouse antibody conjugated to horseradish peroxidase (HRPO). Protein bands were detected by chemiluminescence (ECL). The appearance of an 85 kDa cleavage product was used as a measure of apoptosis.
# [1] = test system: mitochondrial fraction of Jurkat cells; experiment: Cytochrome c release in a cell free system; format: biochemical, human; settings: isolated mitochondria; 25 μM pretreatment
# Protocol: Isolation of the Submitochondrial Fraction. Jurkat cells (1.5-2.0×10^7) were suspended in 1 ml sucrose buffer (250 mM sucrose in 30 mM Tris-HCl pH 7.4) and transferred into an N2 cavitation chamber (PARR Instruments Company, Moline, Ill.). The cells were subjected to N2 cavitation (300 psi for 5 min) as per the manufacturer's instructions. Under these conditions most of the cell membrane was disrupted with no change in the mitochondrial respiratory activity. Next, DNA and the nuclear fraction were removed by centrifugation (1500 g, 30 sec). The supernatant was further centrifuged (16000 g, 10 min) and the pellet was used as the submitochondrial fraction.
# To observe if monoterpene/triterpenoid saponins directly affected mitochondria to induce apoptosis, experiments were carried out using avicin G in a cell free system. Mitochondria were isolated from Jurkat cells by the N2 cavitation method.
Substance,decrease in number of cycling cells (BrdU labeling) (SKH-1 hairless mice),effect on cleavage of PARP induced by F094 or avicins (PARP in Jurkat cells; 100 μM pretreatment 1 hour),effect on F035 induced cleavage of PARP (PARP in Jurkat cells; 100 μM pretreatment for 1 h),effect on avicin G induced cytochrome c release [1]
Vitamin E,30%,–,–,–
"z-Val-Ala-Asp-CH2F [z-vad fmk, reference compound]",–,totally blocked the cleavage of PARP,completely reversed,did not affect the release of cytochrome c
